Here are results for 14 compounds from patent publication US20240150293A1, “SPIROCYCLOHEXANE DERIVATIVES, PHARMACEUTICAL COMPOSITIONS CONTAINING THEM AND THEIR USES AS ANTI-APOPTOTIC INHIBITORS” (LES LABORATOIRES SERVIER, priority 2021, published 2024).

Sequence of Mcl-1 protein (Q07820 whole entry): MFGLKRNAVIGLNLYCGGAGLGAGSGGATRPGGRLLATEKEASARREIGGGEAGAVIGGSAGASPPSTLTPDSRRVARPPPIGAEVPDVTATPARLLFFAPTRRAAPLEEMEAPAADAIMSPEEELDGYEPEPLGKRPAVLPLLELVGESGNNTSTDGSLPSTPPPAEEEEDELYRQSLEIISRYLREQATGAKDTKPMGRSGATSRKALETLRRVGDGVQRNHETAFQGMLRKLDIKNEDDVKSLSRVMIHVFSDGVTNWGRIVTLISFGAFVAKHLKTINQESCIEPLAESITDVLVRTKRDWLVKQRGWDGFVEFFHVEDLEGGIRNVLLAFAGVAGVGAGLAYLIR

The target in this test is Mcl-1 protein (UniProtKB Q07820) (Homo sapiens (Human), UniProt Q07820). Nature of the test: Inhibition of Mcl-1 by the fluorescence polarisation assay (Example A, Method A). It is filed as binding. To be noted: fluorescence polarization assay. Put shortly:
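Protein (5 nM) and fluorescein-tagged peptide tracer (1 nM) incubated with 11-point compound series for 2 h at room temperature in HEPES/NaCl/Tween 20 buffer, pH 7.4, 5% DMSO. Displacement read as decrease in polarisation; IC50 fitted by 4-parameter logistic, converted to Ki (cKi or eKi).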
Take `O=C(O)[C@]1(Nc2cccc(Cl)c2)CC[C@@]2(C=Cc3ccccc32)CC1` [Example 64, (1r,4r)-4-(3-chloroanilino)spiro[cyclohexane-1,1′-indene]-4-carboxylic acid]: the inhibitory constant (Ki) was determined as 735 nM. As for `O=C(O)[C@]1(Nc2cccc(Cl)c2)CC[C@]2(C=Cc3ccccc32)CC1` [Example 65, (1s,4s)-4-(3-chloroanilino)spiro[cyclohexane-1,1′-indene]-4-carboxylic acid], the Ki turned out to be 4990 nM.

As for `COCCOc1ccc2c(c1)[C@]1(CC2)CC[C@](Nc2cccc(Br)c2)(C(=O)O)CC1` [Example 67, (1r,4s)-4-(3-bromoanilino)-6′-(2-methoxyethoxy)-2′,3′-dihydrospiro[cyclohexane-1,1′-indene]-4-carboxylic acid], the Ki was 101 nM. With `C=CCOc1ccc2c(c1)[C@]1(CC2)CC[C@](Nc2cccc(Br)c2)(C(=O)O)CC1` [Example 68, (1r,4s)-4-(3-bromoanilino)-6′-[(prop-2-en-1-yl)oxy]-2′,3′-dihydrospiro[cyclohexane-1,1′-indene]-4-carboxylic acid], the Ki came to 302 nM. For the compound `O=C(O)[C@]1(Nc2cccc(Cl)c2)CC[C@@]2(CCc3ccccc32)CC1` [Example 69, (1r,4s)-4-(3-chloroanilino)-2′,3′-dihydrospiro[cyclohexane-1,1′-indene]-4-carboxylic acid], the Ki is 706 nM. On to `O=C(O)[C@]1(Nc2cccc(Cl)c2)CC[C@@]2(C=Cc3ncccc32)CC1` [Example 70, (1r,4r)-4-(3-chloroanilino)spiro[cyclohexane-1,5′-cyclopenta[b]pyridine]-4-carboxylic acid], for which the Ki is 25900 nM. Turning to `CN(c1cccc(Cl)c1)[C@]1(C(=O)O)CC[C@]2(C=Cc3ccccc32)CC1` [Example 73, (1r,4r)-4-[(3-chlorophenyl)(methyl)amino]spiro[cyclohexane-1,1′-indene]-4-carboxylic acid], the Ki is 60500 nM.

`O=C(O)[C@]1(Nc2cccc(Cl)c2)CC[C@@]2(CC1)C(Br)=Cc1ccccc12` [Example 74, (1r,4r)-2′-bromo-4-(3-chloroanilino)spiro[cyclohexane-1,1′-indene]-4-carboxylic acid]: the Ki came to 23100 nM. For the compound `O=C(O)[C@]1(Nc2cccc(Cl)c2)CC[C@]2(CC1)C(I)=Cc1ccccc12` [Example 76, (1s,4s)-4-(3-chloroanilino)-2′-iodospiro[cyclohexane-1,1′-indene]-4-carboxylic acid], the Ki was 284 nM. With `O=C(O)[C@]1(Nc2cccc(Br)c2)CC[C@]2(CC1)C(I)=Cc1ccccc12` [Example 77, (1s,4s)-4-(3-bromoanilino)-2′-iodospiro[cyclohexane-1,1′-indene]-4-carboxylic acid], the Ki amounted to 227 nM.

Take `O=C(O)[C@]1(Nc2cccc(Br)c2)CC[C@]2(CC1)C(Br)=Cc1ccccc12` [Example 78, (1s,4s)-2′-bromo-4-(3-bromoanilino)spiro[cyclohexane-1,1′-indene]-4-carboxylic acid]: the Ki was determined as 87.6 nM.

`O=C(O)[C@]1(Nc2cncc(Br)c2)CC[C@]2(CC1)C(Br)=Cc1ccccc12` [Example 79, (1s,4s)-2′-bromo-4-[(5-bromopyridin-3-yl)amino]spiro[cyclohexane-1,1′-indene]-4-carboxylic acid]: the Ki was found to be 571 nM.

As to `COCCOc1cccc(N[C@]2(C(=O)O)CC[C@@]3(CC2)C(Br)=Cc2ccccc23)n1` [Example 80, (1s,4s)-2′-bromo-4-{[6-(2-methoxyethoxy)pyridin-2-yl]amino}spiro[cyclohexane-1,1′-indene]-4-carboxylic acid], the Ki came to 11800 nM.

As to `COCCOc1cc(N[C@]2(C(=O)O)CC[C@@]3(CC2)C(Br)=Cc2ccccc23)ccn1` [Example 81, (1s,4s)-2′-bromo-4-{[2-(2-methoxyethoxy)pyridin-4-yl]amino}spiro[cyclohexane-1,1′-indene]-4-carboxylic acid], the Ki worked out at 15500 nM.
